Patent US10294202B2, “Pyrrolidinones as herbicides” (FMC Corporation, priority 2013, dated 2019)

Legend:
blackgrass = experiment: Test A postemergence herbicide test; assay type: in vivo, Alopecurus myosuroides
Summary of the method: (§1)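 Ratings compare treated with untreated plants roughly 10 days after a postemergence application made at the one- to two-leaf stage. Scoring uses 0–100, where 0 means no effect and 100 complete control.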

ducksalad = experiment: Test C flooded paddy test; assay type: in vivo, Heteranthera limosa; settings: Flood
Summary of the method: (§2)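 Plants at the 2-leaf stage in pots flooded to 3 cm were treated by applying compound directly to the paddy water, with depth held throughout. After 13 to 15 days in a greenhouse, response was rated visually against controls on a 0 (no effect) to 100 (complete control) scale.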

ragweed = experiment: Test A pre-/postemergence herbicide test; assay type: in vivo, Ambrosia elatior; settings: for Plant response rating, Ragweed: 0 to 100 scale
Summary of the method: (§3)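 Planted in loam–sand blend; treated the same day preemergence by directed soil spray, while separately grown plants at one- to two-leaf stage got postemergence spray. Compared visually with untreated controls after approximately 10 days; 100 means complete control.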

sedge, umbrella = experiment: Test C flooded paddy test; assay type: in vivo, Cyperus difformis; settings: Flood
Summary of the method: as §2

rice = experiment: Test C flooded paddy test; assay type: in vivo, Oryza sativa; settings: Flood
Summary of the method: as §2

wheat = experiment: Test A pre-/postemergence herbicide test; assay type: in vivo, Triticum aestivum; settings: Postemergence; for Plant response rating, Wheat: 125 g ai/ha, 0 to 100 scale; for Wheat plant response rating (0 to 100 scale, 0 is no effect, 100 is complete control): 500 g ai/ha
Summary of the method: as §3

barnyardgrass [1] = experiment: Test C flooded paddy test; assay type: in vivo, Echinochloa crus-galli; settings: Flood
Summary of the method: as §2

giant foxtail = experiment: Test A pre-/postemergence herbicide test; assay type: in vivo, Setaria faberii; settings: for Plant response rating, Foxtail, Giant: 0 to 100 scale
Summary of the method: as §3

galium = experiment: Test A postemergence herbicide test; assay type: in vivo, Galium aparine; settings: for Plant response rating, Galium: 125 g ai/ha, 0 to 100 scale; for Galium plant response rating (0 to 100 scale, 0 is no effect, 100 is complete control): 500 g ai/ha
Summary of the method: as §1

barnyardgrass [2] = experiment: Test A pre-/postemergence herbicide test; assay type: in vivo, Echinochloa crus-galli
Summary of the method: as §3

ryegrass, Italian = experiment: Test A pre-/postemergence herbicide test; assay type: in vivo, Lolium multiflorum; settings: for Plant response rating, Ryegrass, Italian: 0 to 100 scale
Summary of the method: as §3

corn = experiment: Test A pre-/postemergence herbicide test; assay type: in vivo, Zea mays; settings: Postemergence
Summary of the method: as §3

pigweed = experiment: Test A pre-/postemergence herbicide test; assay type: in vivo, Amaranthus retroflexus; settings: for Plant response rating, Pigweed: 0 to 100 scale
Summary of the method: as §3

kochia = experiment: Test A pre-/postemergence herbicide test; assay type: in vivo, Kochia scoparia; settings: for Plant response rating, Kochia: 0 to 100 scale
Summary of the method: as §3

[3] = 125 g ai/ha, 0 to 100 scale, 0 no effect, 100 complete control
[4] = 500 g ai/ha, 0 to 100 scale (0 no effect, 100 complete control)
[5] = 125 g ai/ha, scale of 0 to 100 where 0 is no effect and 100 is complete control, 13 to 15 days
[6] = 125 g ai/ha, visual rating, 0 no effect, 100 complete control, approximately 10 days, preemergence
[7] = Postemergence, 125 g ai/ha, 0 no effect, 100 complete control
[8] = 0 no effect, 100 complete control
[9] = 125 g ai/ha, visual rating, 0 to 100 scale, 0 no effect, 100 complete control, approximately 10 days, preemergence
[10] = 125 g ai/ha, 0 to 100 scale, 0 is no effect, 100 is complete control
[11] = 250 g ai/ha, scale of 0 to 100 where 0 is no effect and 100 is complete control, 13 to 15 days
[12] = Postemergence, 125 g ai/ha, 0 is no effect, 100 is complete control
[13] = preemergence, 500 g ai/ha, 0 is no effect and 100 is complete control
[14] = 0 is no effect, 100 is complete control

## O=C1NCC(c2cccc(C(F)(F)F)c2)C1C(=O)Nc1ncc(Cl)s1 (racemic) [Compound 113]
blackgrass; [3]
  Plant response rating, Blackgrass: 0
blackgrass; [4]
  Plant response rating, Blackgrass: 0
ducksalad; [5]
  Plant response rating, Ducksalad: 20
ducksalad; 250 g ai/ha, scale 0 to 100
  Plant response rating, Ducksalad: 30
ducksalad; 500 g ai/ha, scale 0 to 100
  Plant response rating, Ducksalad: 50
ducksalad; 1000 g ai/ha, scale 0 to 100
  Plant response rating, Ducksalad: 70
ragweed; [6]
  Plant response rating, Ragweed: 0
ragweed; [7]
  Plant response rating, Ragweed: 0
ragweed; Postemergence, 500 g ai/ha
  Ragweed plant response rating (0 to 100 scale, 0 is no effect, 100 is complete control): 0
ragweed; preemergence, 500 g ai/ha
  Plant response rating, Ragweed: 0
sedge, umbrella; [5]
  Plant response rating, Sedge, Umbrella: 0
sedge, umbrella; 250 g ai/ha, scale 0 to 100
  Plant response rating, Sedge, Umbrella: 0
sedge, umbrella; 500 g ai/ha, scale 0 to 100
  Plant response rating, Sedge, Umbrella: 0
sedge, umbrella; 1000 g ai/ha, scale 0 to 100
  Plant response rating, Sedge, Umbrella: 0
rice; [5]
  Plant response rating, Rice: 0
rice; 250 g ai/ha, scale 0 to 100
  Plant response rating, Rice: 0
rice; 500 g ai/ha, scale 0 to 100
  Plant response rating, Rice: 0
rice; 1000 g ai/ha, scale 0 to 100
  Plant response rating, Rice: 0
wheat; [8]
  Plant response rating, Wheat: 0
wheat
  Wheat plant response rating (0 to 100 scale, 0 is no effect, 100 is complete control): 0
Barnyardgrass [1]; [5]
  Plant response rating, Barnyardgrass: 0
Barnyardgrass [1]; 250 g ai/ha, scale 0 to 100
  Plant response rating, Barnyardgrass: 0
Barnyardgrass [1]; 500 g ai/ha, scale 0 to 100
  Plant response rating, Barnyardgrass: 0
Barnyardgrass [1]; 1000 g ai/ha, scale 0 to 100
  Plant response rating, Barnyardgrass: 0
Giant foxtail; [6]
  Plant response rating, Foxtail, Giant: 0
Giant foxtail; [7]
  Plant response rating, Foxtail, Giant: 0
Giant foxtail; Postemergence, 500 g ai/ha
  Foxtail, Giant plant response rating (0 to 100 scale, 0 is no effect, 100 is complete control): 0
Giant foxtail; preemergence, 500 g ai/ha
  Plant response rating, Foxtail, Giant: 0
galium; [8]
  Plant response rating, Galium: 0
galium
  Galium plant response rating (0 to 100 scale, 0 is no effect, 100 is complete control): 0
Barnyardgrass [2]; [9]
  Plant response rating, Barnyardgrass: 0
Barnyardgrass [2]; Postemergence, 125 g ai/ha, 0 to 100 scale, 0 no effect, 100 complete control
  Plant response rating, Barnyardgrass: 0
Barnyardgrass [2]; Postemergence, 500 g ai/ha, 0 to 100 scale (0 no effect, 100 complete control)
  Plant response rating, Barnyardgrass: 0
Barnyardgrass [2]; preemergence, 500 g ai/ha, 0 to 100 scale (0 no effect, 100 complete control)
  Plant response rating, Barnyardgrass: 0
ryegrass, Italian; [6]
  Plant response rating, Ryegrass, Italian: 0
ryegrass, Italian; [7]
  Plant response rating, Ryegrass, Italian: 0
ryegrass, Italian; Postemergence, 500 g ai/ha
  Ryegrass, Italian plant response rating (0 to 100 scale, 0 is no effect, 100 is complete control): 0
ryegrass, Italian; preemergence, 500 g ai/ha
  Plant response rating, Ryegrass, Italian: 0
corn; [3]
  Plant response rating, Corn: 0
corn; [4]
  Plant response rating, Corn: 0
pigweed; [6]
  Plant response rating, Pigweed: 0
pigweed; [7]
  Plant response rating, Pigweed: 0
pigweed; Postemergence, 500 g ai/ha
  Pigweed plant response rating (0 to 100 scale, 0 is no effect, 100 is complete control): 0
pigweed; preemergence, 500 g ai/ha
  Plant response rating, Pigweed: 0
kochia; [6]
  Plant response rating, Kochia: 0
kochia; [7]
  Plant response rating, Kochia: 0
kochia; Postemergence, 500 g ai/ha
  Kochia plant response rating (0 to 100 scale, 0 is no effect, 100 is complete control): 0
kochia; preemergence, 500 g ai/ha
  Plant response rating, Kochia: 0

## O=C1NCC(c2cccc(C(F)(F)F)c2)C1C(=O)Nc1cccc(F)c1 (racemic) [Compound 208]
blackgrass; [10]
  Plant response rating, Blackgrass: 20
blackgrass; 500 g ai/ha
  Blackgrass plant response rating (0 to 100 scale, 0 is no effect, 100 is complete control): 60
ducksalad; [5]
  Plant response rating, Ducksalad: 0
ducksalad; [11]
  Plant response rating, Ducksalad: 45
ducksalad; 500 g ai/ha, scale 0 to 100
  Plant response rating, Ducksalad: 45
ducksalad; 1000 g ai/ha, scale 0 to 100
  Plant response rating, Ducksalad: 100
ragweed; [6]
  Plant response rating, Ragweed: 0
ragweed; [12]
  Plant response rating, Ragweed: 0
ragweed; Postemergence, 500 g ai/ha
  Ragweed plant response rating (0 to 100 scale, 0 is no effect, 100 is complete control): 20
ragweed; [13]
  Plant response rating, Ragweed: 0
sedge, umbrella; [5]
  Plant response rating, Sedge, Umbrella: 0
sedge, umbrella; [11]
  Plant response rating, Sedge, Umbrella: 0
sedge, umbrella; 500 g ai/ha, scale 0 to 100
  Plant response rating, Sedge, Umbrella: 0
sedge, umbrella; 1000 g ai/ha, scale 0 to 100
  Plant response rating, Sedge, Umbrella: 0
rice; [5]
  Plant response rating, Rice: 0
rice; [11]
  Plant response rating, Rice: 0
rice; 500 g ai/ha, scale 0 to 100
  Plant response rating, Rice: 0
rice; 1000 g ai/ha, scale 0 to 100
  Plant response rating, Rice: 15
wheat; [14]
  Plant response rating, Wheat: 0
wheat
  Wheat plant response rating (0 to 100 scale, 0 is no effect, 100 is complete control): 40
Barnyardgrass [1]; [5]
  Plant response rating, Barnyardgrass: 0
Barnyardgrass [1]; [11]
  Plant response rating, Barnyardgrass: 20
Barnyardgrass [1]; 500 g ai/ha, scale 0 to 100
  Plant response rating, Barnyardgrass: 45
Barnyardgrass [1]; 1000 g ai/ha, scale 0 to 100
  Plant response rating, Barnyardgrass: 65
Giant foxtail; [6]
  Plant response rating, Foxtail, Giant: 80
Giant foxtail; [12]
  Plant response rating, Foxtail, Giant: 90
Giant foxtail; Postemergence, 500 g ai/ha
  Foxtail, Giant plant response rating (0 to 100 scale, 0 is no effect, 100 is complete control): 90
Giant foxtail; [13]
  Plant response rating, Foxtail, Giant: 90
galium; [14]
  Plant response rating, Galium: 0
galium
  Galium plant response rating (0 to 100 scale, 0 is no effect, 100 is complete control): 50
Barnyardgrass [2]; [9]
  Plant response rating, Barnyardgrass: 40
Barnyardgrass [2]; Postemergence, 125 g ai/ha, 0 to 100 scale, 0 is no effect, 100 is complete control
  Plant response rating, Barnyardgrass: 50
Barnyardgrass [2]; Postemergence, 500 g ai/ha
  Barnyardgrass plant response rating (0 to 100 scale, 0 is no effect, 100 is complete control): 80
Barnyardgrass [2]; preemergence, 500 g ai/ha, 0 to 100 scale, 0 is no effect and 100 is complete control
  Plant response rating, Barnyardgrass: 90
ryegrass, Italian; [6]
  Plant response rating, Ryegrass, Italian: 0
ryegrass, Italian; [12]
  Plant response rating, Ryegrass, Italian: 0
ryegrass, Italian; Postemergence, 500 g ai/ha
  Ryegrass, Italian plant response rating (0 to 100 scale, 0 is no effect, 100 is complete control): 40
ryegrass, Italian; [13]
  Plant response rating, Ryegrass, Italian: 20
corn; [10]
  Plant response rating, Corn: 0
corn; 500 g ai/ha
  Corn plant response rating (0 to 100 scale, 0 is no effect, 100 is complete control): 50
pigweed; [6]
  Plant response rating, Pigweed: 0
pigweed; [12]
  Plant response rating, Pigweed: 0
pigweed; Postemergence, 500 g ai/ha
  Pigweed plant response rating (0 to 100 scale, 0 is no effect, 100 is complete control): 0
pigweed; [13]
  Plant response rating, Pigweed: 0
kochia; [6]
  Plant response rating, Kochia: 0
kochia; [12]
  Plant response rating, Kochia: 0
kochia; Postemergence, 500 g ai/ha
  Kochia plant response rating (0 to 100 scale, 0 is no effect, 100 is complete control): 60
kochia; [13]
  Plant response rating, Kochia: 20
